Results from PubChem BioAssay AID330 (DTP/NCI, 2004).
Several values for one entry are separate records, joined by “and”; a condition that tells them apart may be missing. Equal entries are not always repeated. Inconclusive results and toxic doses are left out. Rule for the calls: active = survival T/C of 150% or more; inactive = T/C below 125% in these data.

System: P388 leukemia ip, CD2F1 mice, survival T/C
Test: NCI In Vivo Anticancer Drug Screen. Data for tumor model P388 Leukemia (intraperitoneal) in CD2F1 (CDF1) mice
Details: endpoint: median survival time, higher = longer survival
Procedure, shortened: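 Mice carrying the transplanted tumor received test compound or vehicle. Survival was recorded in each group, and the value is the treated-group measurement divided by that of the vehicle-treated control group.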

[1] = dose: 25.0 mg/kg/injection, schedule: Q04DX002 (ip), vehicle: saline with Tween-80
[2] = dose: 50.0 mg/kg/injection, schedule: Q04DX002 (ip), vehicle: saline with Tween-80
[3] = dose: 50.0 mg/kg/injection, schedule: Q01DX005 (ip), vehicle: Klucel (hydroxypropylcellulose) (HPC)
[4] = dose: 100.0 mg/kg/injection, schedule: Q01DX005 (ip), vehicle: Klucel (hydroxypropylcellulose) (HPC)
[5] = dose: 200.0 mg/kg/injection, schedule: Q01DX005 (ip), vehicle: Klucel (hydroxypropylcellulose) (HPC)
[6] = dose: 50.0 mg/kg/injection, schedule: Q01DX009 (ip), vehicle: saline
[7] = dose: 100.0 mg/kg/injection, schedule: Q01DX009 (ip), vehicle: saline
[8] = dose: 200.0 mg/kg/injection, schedule: Q01DX009 (ip), vehicle: saline
[9] = dose: 50.0 mg/kg/injection, schedule: Q01DX005 (ip), vehicle: saline with Tween-80
[10] = dose: 100.0 mg/kg/injection, schedule: Q01DX005 (ip), vehicle: saline with Tween-80
[11] = dose: 200.0 mg/kg/injection, schedule: Q01DX009 (ip), vehicle: saline with Tween-80
[12] = dose: 50.0 mg/kg/injection, schedule: Q01DX009 (ip), vehicle: saline with Tween-80
[13] = dose: 100.0 mg/kg/injection, schedule: Q01DX009 (ip), vehicle: saline with Tween-80
[14] = dose: 50.0 mg/kg/injection, schedule: Q01DX009 (ip), vehicle: Klucel (hydroxypropylcellulose) (HPC)
[15] = dose: 100.0 mg/kg/injection, schedule: Q01DX009 (ip), vehicle: Klucel (hydroxypropylcellulose) (HPC)
[16] = dose: 25.0 mg/kg/injection, schedule: Q01DX009 (ip), vehicle: other
[17] = dose: 50.0 mg/kg/injection, schedule: Q01DX009 (ip), vehicle: other
[18] = dose: 100.0 mg/kg/injection, schedule: Q01DX009 (ip), vehicle: other
[19] = dose: 200.0 mg/kg/injection, schedule: Q01DX009 (ip), vehicle: other

Measured: T/C

CNCCC(Oc1ccc(C(F)(F)F)cc1)c1ccccc1 (centres undefined)
inactive: [1] 106 % of control | [2] 106 % of control | dose: 100.0 mg/kg/injection, schedule: Q04DX002 (ip), vehicle: saline with Tween-80 106 % of control

Cc1c(C#N)c2nc(N)c3ccccc3n2c1C
inactive: [3] 101 % of control | [4] 106 % of control | [5] 106 % of control

Cc1nc(C)n2ncnc2c1C
inactive: dose: 100.0 mg/kg/injection, schedule: Q04DX003 (ip), vehicle: saline 93 % of control | dose: 200.0 mg/kg/injection, schedule: Q04DX003 (ip), vehicle: saline 102 % of control | dose: 400.0 mg/kg/injection, schedule: Q04DX003 (ip), vehicle: saline 95 % of control

CC1=NN(c2ccc(S(=O)(=O)O)cc2)C(=O)C1N=Nc1ccc(-c2ccc(N=Nc3ccc(OS(=O)(=O)c4ccc(C)cc4)cc3)c(S(=O)(=O)O)c2)cc1 (centres undefined)
inactive: [6] 100 % of control | [7] 100 % of control | [8] 97 % of control

C[C@H]1CCC2=C(C1)NC(N)=NC2(C)C
inactive: dose: 12.5 mg/kg/injection, schedule: Q04DX002 (ip), vehicle: saline with Tween-80 93 % of control | [1] 93 % of control | [2] 98 % of control

O=C(NN1C(=O)CSC1c1ccc(Cl)cc1Cl)c1ccncc1 (centres undefined)
inactive: dose: 25.0 mg/kg/injection, schedule: Q01DX005 (ip), vehicle: saline with Tween-80 101 % of control | [9] 98 % of control | [10] 93 % of control | dose: 120.0 mg/kg/injection, schedule: Q01DX005 (ip), vehicle: saline with Tween-80 100 % of control | dose: 240.0 mg/kg/injection, schedule: Q01DX005 (ip), vehicle: saline with Tween-80 90 % of control

Cc1cc(=O)c2cc3ccc4cccc5ccc(c2[nH]1)c3c45
inactive: [9] 98 % of control | [10] 103 % of control | dose: 200.0 mg/kg/injection, schedule: Q01DX005 (ip), vehicle: saline with Tween-80 100 % of control

c1ccc2cc(OCC(COc3ccc4ccccc4c3)(COc3ccc4ccccc4c3)COc3ccc4ccccc4c3)ccc2c1
inactive: dose: 7.5 mg/kg/injection, schedule: Q01DX009 (ip), vehicle: saline with Tween-80 89 % of control

CCN(CC)CC(C)=O
inactive: dose: 25.0 mg/kg/injection, schedule: Q01DX009 (ip), vehicle: saline 101 % of control | [6] 102 % of control | [7] 103 % of control | [8] 104 % of control

CC1CCN(CC#CCN2C(=O)CCC2=O)CC1
inactive: dose: 25.0 mg/kg/injection, schedule: Q01DX005 (ip), vehicle: Klucel (hydroxypropylcellulose) (HPC) 104 % of control | [3] 103 % of control | [4] 107 % of control | [5] 107 % of control

CC(=O)NS(=O)(=O)c1ccc(N)cc1
inactive: dose: 100.0 mg/kg/injection, schedule: Q01DX009 (ip), vehicle: saline sonified 109 % of control | dose: 132.0 mg/kg/injection, schedule: Q01DX009 (ip), vehicle: saline with Tween-80 104 % of control | [11] 104 % of control | dose: 300.0 mg/kg/injection, schedule: Q01DX009 (ip), vehicle: saline with Tween-80 113 % of control | dose: 400.0 mg/kg/injection, schedule: Q01DX009 (ip), vehicle: saline sonified 104 % of control

CC(=O)OCCN1CCN(CCCN2c3ccccc3Sc3ccc(C(F)(F)F)cc32)CC1
inactive: dose: 100.0 mg/kg/injection, schedule: Q04DX002 (ip), vehicle: saline 89 % of control and 90 % of control

CCN(CC)CCNc1cc2c(c3c(=O)c4ccccc4sc13)CCCC2
inactive: dose: 7.8 mg/kg/injection, schedule: Q01DX005 (ip), vehicle: other 101 % of control | dose: 15.6 mg/kg/injection, schedule: Q01DX005 (ip), vehicle: other 113 % of control | dose: 31.3 mg/kg/injection, schedule: Q01DX005 (ip), vehicle: other 104 % of control | dose: 62.5 mg/kg/injection, schedule: Q01DX005 (ip), vehicle: other 113 % of control | dose: 125.0 mg/kg/injection, schedule: Q01DX005 (ip), vehicle: other 101 % of control

CC1(CO)C2CCC(CC2)C1CO (centres undefined)
inactive: [12] 109 % of control | [13] 100 % of control | [11] 104 % of control

O=c1[nH]c(=S)[nH]cc1Oc1ccc(Cl)cc1Cl
inactive: [12] 94 % of control | [13] 93 % of control | [11] 95 % of control | dose: 400.0 mg/kg/injection, schedule: Q01DX009 (ip), vehicle: saline with Tween-80 108 % of control

CCOC(=O)NC(=O)c1c(C)oc(C)cc1=O
inactive: [14] 118 % of control | [15] 115 % of control | dose: 200.0 mg/kg/injection, schedule: Q01DX009 (ip), vehicle: Klucel (hydroxypropylcellulose) (HPC) 107 % of control

C=CC(C)(C)C1(O)Oc2cc(OC)ccc2C=C1c1ccccc1 (centres undefined)
inactive: dose: 100.0 mg/kg/injection, schedule: Q01DX001 (ip), vehicle: Klucel (hydroxypropylcellulose) (HPC) 101 % of control | dose: 200.0 mg/kg/injection, schedule: Q01DX001 (ip), vehicle: Klucel (hydroxypropylcellulose) (HPC) 101 % of control | dose: 400.0 mg/kg/injection, schedule: Q01DX001 (ip), vehicle: Klucel (hydroxypropylcellulose) (HPC) 91 % of control

CC(CN(C)C)C(=O)/C=C/c1ccc(Cl)cc1 (centres undefined)
inactive: dose: 60.0 mg/kg/injection, schedule: Q01DX005 (ip), vehicle: saline 118 % of control | dose: 120.0 mg/kg/injection, schedule: Q01DX005 (ip), vehicle: saline 122 % of control

COc1ccc([N+](=O)[O-])c(O)c1OC
inactive: dose: 12.5 mg/kg/injection, schedule: Q01DX009 (ip), vehicle: other 94 % of control | [16] 96 % of control | [17] 97 % of control | [18] 94 % of control | [19] 96 % of control

CCOC(=O)C(/N=N\c1nn[nH]n1)/N=N/c1ncn[nH]1 (centres undefined)
inactive: dose: 100.0 mg/kg/injection, schedule: Q01DX001 (ip), vehicle: suspension in saline 102 % of control | dose: 200.0 mg/kg/injection, schedule: Q01DX001 (ip), vehicle: suspension in saline 102 % of control | dose: 400.0 mg/kg/injection, schedule: Q01DX001 (ip), vehicle: suspension in saline 107 % of control

COC(=O)C1=NNC(C(=O)OC)=NN1
inactive: [16] 87 % of control | [17] 106 % of control | [18] 98 % of control | [19] 106 % of control | dose: 400.0 mg/kg/injection, schedule: Q01DX009 (ip), vehicle: other 103 % of control

C=CC(C)(C)n1cc(C2=C(O)C(=O)C(c3cn(C(C)(C)C=C)c4ccccc34)=C(O)C2=O)c2ccccc21
inactive: dose: 2.5 mg/kg/injection, schedule: Q01DX009 (ip), vehicle: carboxymethylcellulose (CMC) 101 % of control | dose: 5.0 mg/kg/injection, schedule: Q01DX009 (ip), vehicle: carboxymethylcellulose (CMC) 103 % of control and 88 % of control | dose: 6.25 mg/kg/injection, schedule: Q01DX009 (ip), vehicle: Klucel (hydroxypropylcellulose) (HPC) 99 % of control | dose: 10.0 mg/kg/injection, schedule: Q01DX009 (ip), vehicle: carboxymethylcellulose (CMC) 108 % of control and 93 % of control | dose: 12.5 mg/kg/injection, schedule: Q01DX009 (ip), vehicle: Klucel (hydroxypropylcellulose) (HPC) 100 % of control | dose: 18.0 mg/kg/injection, schedule: Q01DX009 (ip), vehicle: Klucel (hydroxypropylcellulose) (HPC) 95 % of control | dose: 20.0 mg/kg/injection, schedule: Q01DX009 (ip), vehicle: carboxymethylcellulose (CMC) 120 % of control and 90 % of control | dose: 25.0 mg/kg/injection, schedule: Q01DX009 (ip), vehicle: Klucel (hydroxypropylcellulose) (HPC) 99 % of control | dose: 26.0 mg/kg/injection, schedule: Q01DX009 (ip), vehicle: Klucel (hydroxypropylcellulose) (HPC) 104 % of control | dose: 40.0 mg/kg/injection, schedule: Q01DX009 (ip), vehicle: Klucel (hydroxypropylcellulose) (HPC) 90 % of control | dose: 40.0 mg/kg/injection, schedule: Q01DX009 (ip), vehicle: carboxymethylcellulose (CMC) 114 % of control | [14] 100 % of control | [15] 113 % of control
